Patent publication US4360595A, “Fermentation process for producing anandimycin” (Bristol-Myers Company, priority 1981, dated 1982)
Converted amounts (≈) assume the structure as drawn. Read-outs that look alike come from different tables or passages of the source.

Tests used:
[1] = solubility in organic solvents (trituration, chromatography); format: physicochemical; conditions: for solubility in chromatography solvents: solvents for (preparative) chromatography
Source text: The solids obtained from extraction of the whole broth are next washed with diethyl ether to remove any lard oils and antifoams used in the fermentation. […] To remedy this problem a simple organic solvent trituration scheme was developed which effects a gross separation of the yellow pigments and another class of antitumor agents produced by strain C-22,437 (rachelmycin) from anandimycin on the basis of differential solubility. […] The first step involves trituration of the extraction solids with acetone. The resulting filtrate contains another antitumor substance which is active in the lysogenic bacteria induction assay and the P388 mouse tumor system (rachelmycin). The insoluble solid from the acetone trituration contains the yellow pigments along with a complex of anandimycin and another similar compound. The second phase of the process involves trituration with a ternary organic solvent system 40:30:30(^v/v) chloroform:methanol:tetrahydrofuran. The soluble fraction contains the yellow pigments. […] Substantially pure anandimycin is separated from the enriched mixture using high pressure liquid chromatography on silica gel as described in more detail below.
The analytical solvent system routinely used is hexane:ethyl acetate:isopropanol (30:70:3^v /v) along with 0.1 to 0.4 part water depending on the relative activity state of the silica gel surface in the column being used. If tailing effects are observed, then typically one increases the water content of the solvent system within the 0.1-0.4 part range to improve peak symmetry, thereby permitting a more quantitative analysis.
The preparative solvent system is ethyl acetate:isopropanol:water (87:13:0.5^v /v). […] A shave-recycle method involves increasing the effective silica gel column length through the employment of continuous multiple pass chromatography of the anandimycin-component II band. […] Initial chromatography gave anandimycin enriched to 70-85% purity. Accumulated solids are rechromatographed to yield material of >90% purity. […]

[2] = biological activity (in words)
[3] = test system: Str. pyogenes 9604; assay: in vitro MIC, standard tube dilution procedure; format: cell-based
Protocol: (§1) The in vitro minimum inhibitory concentrations (MIC) of anandimycin were determined against a variety of microorganisms using the standard tube dilution procedure.

[4] = test system: Ps. aeruginosa 9843A; assay: in vitro MIC, standard tube dilution procedure; format: cell-based; conditions: Pseudomonas aeruginosa, read-out: Minimum Inhibitory Concentration
Protocol: as §1

[5] = test system: Staph. aureus 9587; assay: in vitro MIC, standard tube dilution procedure; format: cell-based
Protocol: as §1

[6] = test system: Ent. cloacae 9659; assay: in vitro MIC, standard tube dilution procedure; format: cell-based
Protocol: as §1

[7] = test system: Ser. marcescens 20019; assay: in vitro MIC, standard tube dilution procedure; format: cell-based
Protocol: as §1

[8] = test system: E. coli 20341-1; assay: in vitro MIC, standard tube dilution procedure; format: cell-based
Protocol: as §1

[9] = test system: Staph. aureus (penicillin-resistant) 9606; assay: in vitro MIC, standard tube dilution procedure; format: cell-based; conditions: Staphylococcus aureus, read-out: Minimum Inhibitory Concentration
Protocol: as §1

[10] = test system: Str. faecalis 20,588; assay: in vitro MIC, standard tube dilution procedure; format: cell-based; conditions: Enterococcus faecalis, read-out: Minimum Inhibitory Concentration
Protocol: as §1

[11] = test system: E. coli 15119; assay: in vitro MIC, standard tube dilution procedure; format: cell-based
Protocol: as §1

[12] = test system: Str. pneumoniae 9585; assay: in vitro MIC, standard tube dilution procedure; format: cell-based
Protocol: as §1

[13] = test system: Pr. vulgaris 21559; assay: in vitro MIC, standard tube dilution procedure; format: cell-based
Protocol: as §1

[14] = test system: K. pneumoniae 15130; assay: in vitro MIC, standard tube dilution procedure; format: cell-based
Protocol: as §1

[15] = test system: Pr. mirabilis 9900; assay: in vitro MIC, standard tube dilution procedure; format: cell-based
Protocol: as §1

[16] = antimicrobial / antibiotic activity (in words); format: cell-based
[17] = test system: E. coli; assay: lysogenic bacterial induction (ILB) assay; format: cell-based
Source text: Analytical high pressure liquid chromatography, Bacillus subtilis zone of inhibition, lysogenic bacterial induction and P388 mouse tumor assays are used throughout the above-described separation processes to monitor relative levels of anandimycin and co-produced substances.

[18] = test system: tumors; assay: antitumor activity (in words); parameters: species or system experimental animals; conditions: in vivo
[19] = test system: P-388 leukemia; assay: transplantable mouse tumor P-388 leukemia; format: in vivo, mouse (CDF1 female mice); conditions: for MST: control 9.0 days; for Effect MST % T/C: ≥ 125 significant
Protocol: Anandimycin was also tested against the transplantable mouse tumor P-388 leukemia. The methodology used generally followed the protocols of the National Cancer Institute (Cancer Chemotherapy Rep., Part 3, 3, 1-103 (1972). The essential experimental details are given at the bottom of the following table. Two different dose regimens are tested: single dose on day 1 and three doses given on days 1, 5 and 9. The optimal dose was 64 mg/kg. single dose.
Tumor inoculum: 10^6 ascites cells implanted
Host: CDF1 .female. mice
Evaluation: MST = median survival
Effect: % T/C = (MST treated/MST control) ×
Criteria: % T/C ≥ 125 considered significant antitumor
Tox: […] 4/6 mice alive on day 5
AWC = average weight gain (treatedcontrol) in grams (on day 4)

Structure (SMILES): COc1cc2c(oc(=O)c3cc(O)cc(OC)c32)c2c(C3OC(C(C)O)C(O)C3O)ccc(O)c12 (stereo not shown) [Component II]
- solubility in chromatography solvents [1]: poor solubility
- biological activity [2]: biologically inactive
- MIC ([3]; Streptococcus pyogenes, Str. pyogenes 9604, read-out: Minimum Inhibitory Concentration): 0.5 µg/mL (≈ 1.03 µM)
- MIC ([4]; Ps. aeruginosa 9843A): > 63 µg/mL
- MIC ([5]; Staphylococcus aureus, Staph. aureus 9587, read-out: Minimum Inhibitory Concentration): 0.13 µg/mL (≈ 0.268 µM)
- MIC ([6]; Enterobacter cloacae, Ent. cloacae 9659, read-out: Minimum Inhibitory Concentration): > 63 µg/mL
- MIC ([7]; Serratia marcescens, Ser. marcescens 20019, read-out: Minimum Inhibitory Concentration): > 63 µg/mL
- MIC ([8]; Escherichia coli, 203411, E. coli 20341-1, read-out: Minimum Inhibitory Concentration): > 63 µg/mL
- MIC [9]: 0.5 µg/mL (≈ 1.03 µM)
- MIC ([10]; Str. faecalis 20,588): 0.13 µg/mL (≈ 0.268 µM)
- MIC ([11]; Escherichia coli, E. coli 15119, read-out: Minimum Inhibitory Concentration): > 63 µg/mL
- MIC ([12]; Streptococcus pneumoniae, Str. pneumoniae 9585, read-out: Minimum Inhibitory Concentration): 0.25 µg/mL (≈ 0.516 µM)
- MIC ([13]; Proteus vulgaris, Pr. vulgaris 21559, read-out: Minimum Inhibitory Concentration): > 63 µg/mL
- MIC ([14]; Klebsiella pneumoniae, K. pneumoniae 15130, read-out: Minimum Inhibitory Concentration): > 63 µg/mL
- MIC ([15]; Proteus mirabilis, Pr. mirabilis 9900, read-out: Minimum Inhibitory Concentration): > 63 µg/mL

Structure (SMILES): C=Cc1cc(OC)c2c(c1)c(=O)oc1c2cc(OC)c2c(O)ccc(C3OC(C(C)O)C(O)C3O)c21 (stereo not shown) [Anandimycin]
- solubility in trituration solvents ([1]; acetone, 40:30:30 chloroform:methanol:tetrahydrofuran): insoluble
- solubility in chromatography solvents [1]: poor solubility
- antimicrobial / antibiotic activity [16]: exhibit antimicrobial activity
- toxicity to the host organism (E. coli) ([17]; above 1.6 μg/ml): toxic to the host organism
- ILB activity ([17]; maximum concentration of 1.6 μg/ml): completely devoid of ILB activity
- antitumor activity [18]: inhibit the growth of tumors in experimental animals
- AWC Day 4 ([19]; d.1,5&9, IP, 0.5 mg/kg/inj.): -0.1 gm.
- Survivors Day 5(30) ([19]; d.1,5&9, IP, 0.5 mg/kg/inj.): 6/6
- MST ([19]; d.1,5&9, IP, 0.5 mg/kg/inj.): 9.0 days
- Effect MST % T/C ([19]; d.1,5&9, IP, 0.5 mg/kg/inj.): 100%
- AWC Day 4 ([19]; d.1,5&9, IP, 1 mg/kg/inj.): +0.6 gm.
- Survivors Day 5(30) ([19]; d.1,5&9, IP, 1 mg/kg/inj.): 6/6
- MST ([19]; d.1,5&9, IP, 1 mg/kg/inj.): 9.0 days
- Effect MST % T/C ([19]; d.1,5&9, IP, 1 mg/kg/inj.): 100%
- AWC Day 4 ([19]; d.1,5&9, IP, 2 mg/kg/inj.): +0.2 gm.
- Survivors Day 5(30) ([19]; d.1,5&9, IP, 2 mg/kg/inj.): 6/6
- MST ([19]; d.1,5&9, IP, 2 mg/kg/inj.): 9.0 days
- Effect MST % T/C ([19]; d.1,5&9, IP, 2 mg/kg/inj.): 100%
- AWC Day 4 ([19]; d.1,5&9, IP, 4 mg/kg/inj.): +0.7 gm.
- Survivors Day 5(30) ([19]; d.1,5&9, IP, 4 mg/kg/inj.): 6/6
- MST ([19]; d.1,5&9, IP, 4 mg/kg/inj.): 10.5 days
- Effect MST % T/C ([19]; d.1,5&9, IP, 4 mg/kg/inj.): 117%
- AWC Day 4 ([19]; d.1,5&9, IP, 8 mg/kg/inj.): +0.2 gm.
- Survivors Day 5(30) ([19]; d.1,5&9, IP, 8 mg/kg/inj.): 6/6
- MST ([19]; d.1,5&9, IP, 8 mg/kg/inj.): 13.5 days
- Effect MST % T/C ([19]; d.1,5&9, IP, 8 mg/kg/inj.): 150%
- AWC Day 4 ([19]; d.1,5&9, IP, 16 mg/kg/inj.): 0 gm.
- Survivors Day 5(30) ([19]; d.1,5&9, IP, 16 mg/kg/inj.): 5/5
- MST ([19]; d.1,5&9, IP, 16 mg/kg/inj.): 13.0 days
- Effect MST % T/C ([19]; d.1,5&9, IP, 16 mg/kg/inj.): 144%
- AWC Day 4 ([19]; d.1, IP, 0.5 mg/kg/inj.): -0.1 gm.
- Survivors Day 5(30) ([19]; d.1, IP, 0.5 mg/kg/inj.): 6/6
- MST ([19]; d.1, IP, 0.5 mg/kg/inj.): 9.0 days
- Effect MST % T/C ([19]; d.1, IP, 0.5 mg/kg/inj.): 100%
- AWC Day 4 ([19]; d.1, IP, 1 mg/kg/inj.): -0.1 gm.
- Survivors Day 5(30) ([19]; d.1, IP, 1 mg/kg/inj.): 6/6
- MST ([19]; d.1, IP, 1 mg/kg/inj.): 9.0 days
- Effect MST % T/C ([19]; d.1, IP, 1 mg/kg/inj.): 100%
- AWC Day 4 ([19]; d.1, IP, 2 mg/kg/inj.): -0.2 gm.
- Survivors Day 5(30) ([19]; d.1, IP, 2 mg/kg/inj.): 5/5
- MST ([19]; d.1, IP, 2 mg/kg/inj.): 10.0 days
- Effect MST % T/C ([19]; d.1, IP, 2 mg/kg/inj.): 111%
- AWC Day 4 ([19]; d.1, IP, 4 mg/kg/inj.): -0.9 gm.
- Survivors Day 5(30) ([19]; d.1, IP, 4 mg/kg/inj.): 6/6
- MST ([19]; d.1, IP, 4 mg/kg/inj.): 10.0 days
- Effect MST % T/C ([19]; d.1, IP, 4 mg/kg/inj.): 111%
- AWC Day 4 ([19]; d.1, IP, 8 mg/kg/inj.): -0.2 gm.
- Survivors Day 5(30) ([19]; d.1, IP, 8 mg/kg/inj.): 6/6
- MST ([19]; d.1, IP, 8 mg/kg/inj.): 11.5 days
- Effect MST % T/C ([19]; d.1, IP, 8 mg/kg/inj.): 128%
- AWC Day 4 ([19]; d.1, IP, 16 mg/kg/inj.): -0.6 gm.
- Survivors Day 5(30) ([19]; d.1, IP, 16 mg/kg/inj.): 6/6
- MST ([19]; d.1, IP, 16 mg/kg/inj.): 11.0 days
- Effect MST % T/C ([19]; d.1, IP, 16 mg/kg/inj.): 122%
- AWC Day 4 ([19]; d.1, IP, 32 mg/kg/inj.): -0.6 gm.
- Survivors Day 5(30) ([19]; d.1, IP, 32 mg/kg/inj.): 6/6
- MST ([19]; d.1, IP, 32 mg/kg/inj.): 13.0 days
- Effect MST % T/C ([19]; d.1, IP, 32 mg/kg/inj.): 144%
- AWC Day 4 ([19]; d.1, IP, 64 mg/kg/inj.): -0.3 gm.
- Survivors Day 5(30) ([19]; d.1, IP, 64 mg/kg/inj.): 6/6
- MST ([19]; d.1, IP, 64 mg/kg/inj.): 14.5 days
- Effect MST % T/C ([19]; d.1, IP, 64 mg/kg/inj.): 161%
- optimal dose ([19]; single dose): 64 mg/kg
- MIC ([3]; Streptococcus pyogenes, 9604, read-out: Minimum Inhibitory Concentration): 0.13 µg/mL (≈ 0.263 µM)
- MIC ([4]; 9843A): > 63 µg/mL
- MIC ([5]; Staphylococcus aureus, 9587, read-out: Minimum Inhibitory Concentration): 0.06 µg/mL (≈ 0.121 µM)
- MIC ([6]; Enterobacter cloacae, 9659, read-out: Minimum Inhibitory Concentration): > 63 µg/mL
- MIC ([7]; Serratia marcescens, 20019, read-out: Minimum Inhibitory Concentration): > 63 µg/mL
- MIC ([8]; Escherichia coli, 203411, read-out: Minimum Inhibitory Concentration): > 63 µg/mL
- MIC [9]: 0.25 µg/mL (≈ 0.506 µM)
- MIC [10]: 0.016 µg/mL (≈ 0.0324 µM)
- MIC ([11]; Escherichia coli, 15119, read-out: Minimum Inhibitory Concentration): > 63 µg/mL
- MIC ([12]; Streptococcus pneumoniae, 9585, read-out: Minimum Inhibitory Concentration): 0.13 µg/mL (≈ 0.263 µM)
- MIC ([13]; Proteus vulgaris, 21559, read-out: Minimum Inhibitory Concentration): 2 µg/mL (≈ 4.04 µM)
- MIC ([14]; Klebsiella pneumoniae, 15130, read-out: Minimum Inhibitory Concentration): > 63 µg/mL
- MIC ([15]; Proteus mirabilis, 9900, read-out: Minimum Inhibitory Concentration): > 63 µg/mL
